This is an account of results in patent publication US7968588B2, “Injectable formulation of antibiotic and solution for intravenous administration thereof” (eRigen Pharmaceuticals, Inc., priority 2006, dated 2011).

Starred links: 1 amine or outer side, 2 acyl side, 3 side chain; linkers in the order of their positions; H or OH if unused. Positions of bridges follow the written chain, without caps; N, C: chain ends. Non-standard residues stand in square brackets, D forms with d. Residues, ends and D or L forms follow the SMILES beside them. ξ: configuration not given here. ξAsn(3ξ-OH) = NC(=O)C(O)C(N)C(=O)O; X1 = CC(C)CCCC(CC(=O)[*:1])O[*:2]; NMeF = CN[CH](Cc1ccccc1)C(=O)O; NMeV = CN[CH](C(=O)O)C(C)C; Orn = NCCC[CH](N)C(=O)O

This experiment deals with MRSA (strain ATCC 33591). Briefly: In vivo efficacy study in a MRSA infection model in mice. Further details: species or system Staphylococcus aureus. Conditions: for survival (%) at dosage 1.0 mg/kg: single i.v. dose 1.0 mg/kg one hour after i.v. MRSA inoculation; for survival (%) at dosage 3.0 mg/kg: single i.v. dose 3.0 mg/kg one hour after i.v. MRSA inoculation; for 50% effective dose: single i.v. dose, calculated from the survival rate at each dosage. As to the method:
Efficacy was compared between the present solution of WAP-8294A2 prepared in the manner shown in Example 4 and vancomycin for injection (5% dextrose solution) using an MRSA infection model in mice.
The 50% effective dose (mg/kg) was calculated from the survival rate at each dosage.

In the case of `CN[C@H](CC(C)C)C(=O)N[C@H]1C(=O)N[C@@H](CC(N)=O)C(=O)N[C@H]2C(=O)N[C@H]3C(=O)N[C@H](C(=O)N[C@H](C(=O)O)c4cc(O)cc(O)c4-c4cc3ccc4O)[C@H](O)c3ccc(c(Cl)c3)Oc3cc2cc(c3O[C@@H]2O[C@H](CO)[C@@H](O)[C@H](O)[C@H]2O[C@H]2C[C@](C)(N)[C@H](O)[C@H](C)O2)Oc2ccc(cc2Cl)[C@H]1O` [vancomycin, reference compound], the 50% effective dose is recorded as 3.12 mg/kg. Further, under “observed for a week”, the “survival (%) at dosage 1.0 mg/kg” value was determined as 0% and the “survival (%) at dosage 3.0 mg/kg” value was found to be 30%. In addition, the “survival (%) at dosage 10 mg/kg” value (single i.v. dose 10 mg/kg one hour after i.v. MRSA inoculation, observed for a week) stood at 100%.
Turning to `CC(C)CCCC1CC(=O)NC(CO)C(=O)NC(C(O)C(N)=O)C(=O)NC(CO)C(=O)NCC(=O)N(C)C(Cc2ccccc2)C(=O)NC(CC(C)C)C(=O)NC(CCCN)C(=O)NC(CCC(=O)O)C(=O)NC(CC(N)=O)C(=O)NC(Cc2c[nH]c3ccccc23)C(=O)NC(CCCN)C(=O)N(C)C(C(C)C)C(=O)O1` (centres unmarked) [WAP-8294A2] (S[ξAsn(3ξ-OH)]SG[NMeF]L[Orn]ENW[Orn][NMeV]; linker N-C via X1; configuration not given here), the 50% effective dose was 0.06 mg/kg. In addition, where the note is “single i.v. dose 0.01 mg/kg one hour after i.v. MRSA inoculation, observed for a week”, the “survival (%) at dosage 0.01 mg/kg” value was found to be 10%. The “survival (%) at dosage 0.03 mg/kg” value (single i.v. dose 0.03 mg/kg one hour after i.v. MRSA inoculation, observed for a week) is reported as 30%. The “survival (%) at dosage 0.1 mg/kg” value (single i.v. dose 0.1 mg/kg one hour after i.v. MRSA inoculation, observed for a week) was determined as 60%. The “survival (%) at dosage 0.3 mg/kg” value (single i.v. dose 0.3 mg/kg one hour after i.v. MRSA inoculation, observed for a week) is given as 100%. Under “observed for a week”, the “survival (%) at dosage 1.0 mg/kg” value came out at 100% and the “survival (%) at dosage 3.0 mg/kg” value is 100%.
